Laboratory results: US4794110A, “5-Aryl-11-substituted-5H,11H-pyrrolo[2,1-c][1,4]benzoxazepined as analgesic and hypotensive agents” (Hoechst-Roussel Pharmaceuticals, Inc., priority 1987, dated 1988)
Where “and” joins values, the source holds several entries; their conditions need not be identical. Identical values can stand only once.

Experiments:
[1] = test system: 2-phenyl-1,4-benzoquinone-induced writhing; assay: 2-phenyl-1,4-benzoquinone-induced writhing test in mice (analgesic activity, phenylquinone writhing); format: in vivo
Source text: The compounds of formula I of the present invention are useful as analgesic agents due to their ability to alleviate pain in mammals. […] Exptl. Biol. Med., 95, 729 (1957)].

[2] = test system: spontaneous hypertensive rat; assay: Antihypertensive activity in the spontaneous hypertensive rat by the indirect tail cuff method; format: in vivo; details: mean arterial blood pressure, third day
Procedure: In this procedure a group of five animals are treated orally for three days with the test compound in relation to a control group of the same number. The drop in blood pressure is measured on the third day following administration.

CCC(=O)O[C@](Cc1ccccc1)(c1ccccc1)[C@H](C)CN(C)C [propoxyphene, reference compound]
Analgesic PQW, % Inhibition of Writhing ([1]; 3.9 mg/kg s.c., reference compound): 50%

O=C(O)C(=O)O.c1ccc(CN2CCC(C3Oc4ccccc4C(c4ccccc4)n4cccc43)CC2)cc1 (centres unmarked) [11-(1-Benzyl-4-piperidinyl)-5-phenyl-5H,11H-pyrrolo[2,1-c][1,4]benzoxazepine oxalate]
Analgesic PQW, % Inhibition of Writhing ([1]; 20 mg/kg, s.c.): 34% | Decrease in Blood Pressure ([2]; 3 mg/kg, p.o.): 44 mmHg

CN(C)CC1Oc2ccccc2C(c2ccccc2)n2cccc21.Cl (single isomer, unassigned) [11-dimethylaminomethyl-5-phenyl-5H,11H--pyrrolo[2,1-c][1,4]b] [11-Dimethylaminomethyl-5-phenyl-5H,11H-pyrrolo[2,1-c][1,4]benzoxazepine hydrochloride]
Analgesic PQW, % Inhibition of Writhing ([1]; 20 mg/kg, s.c., hydrochloride): 24% and 35%

C[C@H](CS)C(=O)N1CCC[C@H]1C(=O)O [captopril, reference compound]
Decrease in Blood Pressure ([2]; 10 mg/kg p.o., reference compound): 33 mmHg
